Tested on: Aphis Fabae, Mixed Instar, Bean Aphid (BA)
Experiment: Bean aphid (BA) foliar spray test, mortality after 2 days
Format: in vivo
Details: Aphis fabae, 48 h, rating scale, read-out: BA AD-FOLIAR 300 (ppm)
Description: (§1) Test solutions are prepared by dissolving the test compound in a 35% acetone in water mixture to give a concentration of 10,000 ppm. Subsequent dilutions are made with water as needed.
Aphis Fabae, Mixed Instar, Bean Aphid (BA)
Pots containing single nasturtium plants (Tropaeolum sp.) about 5 cm tall are infested with about 100-200 aphids one day before the test. Each pot is sprayed with the test solution for 2 revolutions of a 4 rpm turntable in a hood. The spray is directed to give complete coverage of the plants and aphids. The sprayed pots are set on their sides on white trays and held for 2 days, following which mortality estimates are made. Essentially the same method is used with respect to cotton aphid (CA).

Compound	pest or weed control at 300 ppm [%]
Fc1cccc(Oc2nccc(-c3ccc(Cl)cc3)n2)c1 [Compound 137]	76 to 100
Fc1ccc(Oc2nccc(-c3ccccc3)n2)cc1C(F)(F)F [Compound 130]	0 to 45
COc1ccc(-c2ccnc(Oc3ccc(F)c(C(F)(F)F)c3)n2)cc1 [Compound 153]	45 to 75
CN(C)c1cc(-c2cccc(C(F)(F)F)c2)nc(Oc2cccc(C(F)(F)F)c2)n1 [Compound 111]	76 to 100
COc1cccc(Oc2nccc(-c3ccc(Cl)cc3)n2)c1 [Compound 143]	76 to 100
FC(F)(F)c1cccc(Oc2nccc(-c3ccc(Cl)c(Cl)c3)n2)c1 [Compound 154]	45 to 75
Clc1ccc(-c2ccnc(Oc3ccc(Cl)c(Cl)c3)n2)cc1 [Compound 151]	45 to 75
N#Cc1cccc(Oc2nccc(-c3ccc(Cl)cc3)n2)c1 [Compound 141]	45 to 75
CSc1cc(-c2cccc(C(F)(F)F)c2)nc(Oc2cccc(C(F)(F)F)c2)n1 [Compound 108]	45 to 75

Same assay, conditions: rating scale

Compound	BA AD-FOLIAR 300 (ppm)
CC(C)(C)c1ccc(-c2ccnc(Oc3ccc([N+](=O)[O-])c(C(F)(F)F)c3)n2)cc1 [Compound 26]	B (B 45-75% kill)
FC(F)(F)c1ccc(-c2ccnc(Oc3ccc(Cl)c(Cl)c3)n2)cc1 [Compound 28]	A (A 0-45% kill)
Fc1ccc(Oc2nccc(-c3ccc(C(F)(F)F)cc3)n2)cc1Cl [Compound 31]	B (B 45-75% kill)
CC(C)(C)c1ccc(-c2ccnc(Oc3ccc(Cl)c(C(F)(F)F)c3)n2)cc1 [Compound 25]	A (A 0-45% kill)
Fc1cc(-c2ccnc(Oc3ccc(Cl)c(Cl)c3)n2)cc(C(F)(F)F)c1 [Compound 58]	C (C 76-100% kill)
O=[N+]([O-])c1ccc(-c2ccnc(Oc3cccc(C(F)(F)F)c3)n2)cc1 [Compound 9]	B (B 45-75% kill)
FC(F)(F)Oc1ccc(-c2ccnc(Oc3cc(C(F)(F)F)cc(C(F)(F)F)c3)n2)cc1 [Compound 45]	C (C 76-100% kill)
Fc1cc(F)cc(-c2ccnc(Oc3cccc(C(F)(F)F)c3)n2)c1 [Compound 61]	C (C 76-100% kill)
O=[N+]([O-])c1ccc(Oc2nccc(-c3ccc(C(F)(F)F)cc3)n2)cc1C(F)(F)F [Compound 33]	B (B 45-75% kill)
CCc1ccc(-c2ccnc(Oc3ccc(Cl)c(C(F)(F)F)c3)n2)cc1 [Compound 17]	C (C 76-100% kill)

Tested on: Spodoptera Eridania, 3rd Instar Larvae, Southern Armyworm (SAW)
Experiment: Southern armyworm (SAW) leaf-dip test, observations at 5 days
Format: in vivo
Details: Southern Army Worm, rating scale
Description: as §1
Spodoptera Eridania, 3rd Instar Larvae, Southern Armyworm (SAW)
A Sieva lima bean leaf expanded to 7-8 cm in length is dipped in the test solution with agitation for 3 seconds and allowed to dry in a hood. The leaf is then placed in a 100×10 mm petri dish containing a damp filter paper on the bottom and ten 3rd instar caterpillars. At 5 days, observations are made of mortality, reduced feeding, or any interference with normal molting.

Compound	SAW 2^ND-FOLIAR 1000 (ppm)
O=[N+]([O-])c1ccc(Oc2nccc(-c3cccc(OC(F)(F)F)c3)n2)cc1C(F)(F)F [Compound 40]	A (A 0-45% kill)
O=[N+]([O-])c1ccc(Oc2nccc(-c3ccccc3)n2)cc1C(F)(F)F [Compound 8]	A (A 0-45% kill)
FC(F)(F)c1cc(Oc2nccc(-c3ccc(Cl)cc3)n2)ccc1Cl [Compound 1]	A (A 0-45% kill)
O=[N+]([O-])c1ccc(Oc2nccc(-c3ccc(Cl)cc3)n2)cc1C(F)(F)F [Compound 3]	B (B 45-75% kill)
Fc1ccc(Oc2nccc(-c3ccccc3)n2)cc1C(F)(F)F [Compound 6]	A (A 0-45% kill)
Fc1cc(-c2ccnc(Oc3cccc(C(F)(F)F)c3)n2)cc(C(F)(F)F)c1 [Compound 52]	A (A 0-45% kill)
FC(F)(F)Oc1ccc(-c2ccnc(Oc3cc(Cl)cc(Cl)c3)n2)cc1 [Compound 44]	A (A 0-45% kill)

Same assay, conditions: Spodoptera eridania, foliar, 120 h, Southern Army Worm, rating scale, read-out: SAW 2^ND-FOLIAR 1000 (ppm)

Compound	pest or weed control at 1000 ppm [%]
Fc1ccc(Oc2nccc(-c3ccc(Br)cc3)n2)cc1C(F)(F)F [Compound 162]	0 to 45
CSc1cc(-c2ccc(Cl)cc2)nc(Oc2cccc(Cl)c2)n1 [Compound 119]	45 to 75
FC(F)(F)c1cccc(Oc2nc(Cl)cc(-c3cccc(C(F)(F)F)c3)n2)c1 [Compound 110]	76 to 100
Fc1ccc(Oc2nccc(-c3cccc(C(F)(F)F)c3)n2)cc1C(F)(F)F [Compound 112]	0 to 45
